Data on four molecules can be found in patent US20160250142A1, “INHALED AEROSOLIZED IMMUNO-CHEMOTHERAPY FOR THE TREATEMENT OF MDR TB” (priority 2013, published 2016).

Data set [1] in a line: Plasma and lung drug levels in mice after MicroSprayer endotracheal delivery (LC/MS/MS). Conditions: for concentration at 1 h / concentration at 8 h: female, C57BL/6, mouse; for Lung levels compared to plasma levels / Plasma and lung levels 8 hours post dose compared to 1 hour post dose: endotracheal delivery; for Lung Levels: 8 hour (Range): Table 14 summary, dose delivered 240/150/50 μg in 100 μL.
Experimental: Observations were taken at 1 and 8 hour time points within lung tissue as well as the plasma of individual animals.
For microsprayer dosing via endotracheal administration, mice were anesthetized by Ketamine/Xylazine (K/X) sedation (50 mg/kg Ketamine and 5 mg/kg Xylazine) administered intraperitoneally (IP). […] A Bair Hugger warm air unit was used to keep animals warm during recovery from K/X anesthesia (i.e. after dosing).
On Day 0, mice were endotracheally intubated with a MicroSprayer® Aerosolizer (Penn-Century™, Inc.; Wyndmoor, Pa.) and test articles were delivered in the airways at a dose volume of 100 μL/dose at various dose levels.
Animals were used for collection of blood samples and the entire lung for plasma and drug level determinations. Each mouse was anesthetized with CO2/O2 and terminally bled via retro-orbital into tubes containing K2EDTA. Upon collection each blood sample was mixed by gentle inversion, placed on ice, and subsequently centrifuged to separate plasma. Plasma samples were processed on the day they were collected, or were snap frozen using liquid nitrogen and stored frozen (at or below −70° C.) until analyzed.
Animals in Subgroup A were used for collection of blood samples for plasma drug level determinations at the 1 hour post dose time point following Day 0 dosing; samples were collected within ±3% of target time. Animals in Subgroup B were used for collection of blood samples for plasma drug level determinations at the 8 hour post dose time point following Day 0 dosing; samples were collected within ±3% of target time (Table 8).
Immediately following each subgroups blood collection time point, each animal was euthanized using CO2 and the entire lung was collected for tissue drug level determinations (within 15 minutes after the blood sample), weighed, and snap-frozen. Lung samples were snap frozen using liquid nitrogen or dry ice and stored frozen (at or below −70° C.) until analyzed. […] Animals in Groups 1-3 had aerosol content (ng/mL), plasma content (ng/mL) and lung level (ng/g) assessed for parent using an appropriate LC/MS/MS method.

Data set [2] deals with TB (Mycobacterium tuberculosis). Conditions: reported for reference only; metronidazole MIC not established for TB; cited from earlier work.
The format of data set [3] is in vivo, female C57BL/6 mice. Conditions: number of animals. As for the experimental part:
Detailed observations were recorded prior to dosing and prior to euthanasia.
All animals survived to their scheduled euthanasia time point on Day 0 (1 hour or 8 hours post dosing). All animals were normal (no clinical abnormalities) prior to dosing on Day 0 and prior to euthanasia 1 hour or 8 hours post dosing.

Data set [4] is described as follows: NGI impactor test of nebulized respiratory solutions (aerosol particle size). The class given is physicochemical. To be noted: fractions by HPLC. As for the experimental part:
FIG. 1. Graphical representation of the NGI impactor test for Metronidazole respiratory solution (8 mg/mL).
FIG. 2. Graphical representation of the NGI impactor test for Amikacin respiratory solution (200 mg/mL).
FIG. 3. Graphical representation of the NGI impactor test for Levofloxacin respiratory solution (250 mg/mL).
The nebulization drug formulations were nebulized and passed through an NGI impactor (Westech Corporation). These experiments show the fraction of drug in various stages of the impactor (FIGS. 1-3). It was shown that significant amounts of the drug compounds were obtained at the different stages, which corresponds to the respirable fraction that would be deposited in the lungs. The drug fractions were analyzed by HPLC.

Data set [5] in a line: Human IFN-γ levels in mouse lung and plasma after aerosol delivery (ELISA). The class given is in vivo, female C57BL/6 mice. Conditions: for IFN-g Level in mouse plasma: plasma diluted 1:2, ELISA sensitivity <2 pg/mL; for IFN-g Level in lung homogenate: mouse lung homogenized in 10 mL buffer; for IFN-g Level in lung homogenate / ng of IFN-g per gm of tissue: individual animals; for ng of IFN-g per gm of tissue / ng of IFN-g per gm of tissue, Mean: mouse lung; for ng of IFN-g per gm of tissue, Mean: mean of 3. As for the experimental part: Actimmune® (IFN-γ; Interferon gamma-1b) was diluted in the dilution solution excipient as per manufacturer's directions. The contents of one (1) vial (100 μg/0.5 mL) were gently diluted to a final volume of 700 mL using the dilution solution excipient. This represented a 1:1400 dilution. Test articles A-C were supplied in a ready to use form and no additional formulations were required. All residual test articles were stored at room temperature (15-30° C.) or refrigerated (2-8° C.).

[6] abbreviates: lung, Lung levels 1 hour post dose (range), mice, endotracheal MicroSprayer, Subgroup A.
The mark [7] stands for this setting: lung, Lung levels 8 hour post dose (range), mice, endotracheal MicroSprayer, Subgroup B.
Where [8] appears, read: plasma, Plasma levels 1 hour post dose (range), mice, endotracheal MicroSprayer, Subgroup A, 3 animals.
Setting [9] is: plasma, Plasma levels 8 hour post dose (range), mice, endotracheal MicroSprayer, Subgroup B, 3 animals.
Where [10] appears, read: mice, IT, 1 hr, individual animals.
The mark [11] stands for this setting: mice, IT, 1 hr, individual animals, nominal dose 0.48/0.3/0.1 mg/animal (delivered about 50%).
[12] abbreviates: mice, IT, 8 hr, individual animals.
The mark [13] stands for this setting: mice, IT, 8 hr, individual animals, nominal dose 0.48/0.3/0.1 mg/animal.
Where [14] appears, read: lung, Lung Concentration (μg/g) of Tissue, mice, IT, 1 hr, individual animals.
The mark [15] stands for this setting: lung, Lung Concentration, mice, IT, 1 hr, individual animals.
The mark [16] stands for this setting: plasma, Plasma Concentration, mice, IT, 1 hr, individual animals, nominal dose 0.48/0.3/0.1 mg/animal (delivered about 50%).
[17] abbreviates: plasma, Plasma Concentration, mice, IT, 8 hr, individual animals, nominal dose 0.48/0.3/0.1 mg/animal.
The mark [18] stands for this setting: mice, endotracheal MicroSprayer, Subgroup B, 3 animals.

“And” between values parts separate entries of the source, which are not always exact repeats. Identical values can stand only once. Like-named read-outs stand apart in the source and are kept apart here.

Regarding `NCC[C@H](O)C(=O)N[C@@H]1C[C@H](N)[C@@H](O[C@H]2O[C@H](CN)[C@@H](O)[C@H](O)[C@H]2O)[C@H](O)[C@H]1O[C@H]1O[C@H](CO)[C@@H](O)[C@H](N)[C@H]1O` [Amikacin], the concentration at 1 h was 3990 to 9480 ng/g in data set [1] (setting [6]) and 2300 to 7140 ng/mL in data set [1] (setting [8]). For the same molecule, the values for the concentration at 8 h in data set [1] (setting [7]) and in data set [1] (setting [9]) were 351 to 3060 ng/g and 152 to 406 ng/mL, respectively. The “Lung Concentration” value in data set [1] (setting [10]) was 4830 ng/g and 9480 ng/g and 3990 ng/g; in data set [1] (setting [12]), 3060 ng/g and 443 ng/g and 351 ng/g. Also, the “Lung Concentration (μg/g) of Tissue” value is 33.6 µg/g and 64.9 µg/g and 27.0 µg/g in data set [1] (setting [10]); 19.0 µg/g and 3.05 µg/g and 1.99 µg/g in data set [1] (setting [12]). In addition, the “Plasma Concentration” value in data set [1] (setting [11]) was 7140 ng/mL and 4820 ng/mL and 2300 ng/mL; in data set [1] (setting [13]), 406 ng/mL and 156 ng/mL and 152 ng/mL. Also, the “Lung levels compared to plasma levels” value in data set [1] (mice) is listed as “higher”. Further, the “Plasma and lung levels 8 hours post dose compared to 1 hour post dose” value in data set [1] (mice) is listed as “decreased”. The “Reported MIC” value in data set [2] was 0.5 μg/mL (500 ng/mL). Further, the “ANIMALS ALIVE” value came to 6 in data set [3] (Day 0, 1 hr post dose) and 3 in data set [3] (Day 0, 8 hr post dose). Besides, the “ANIMALS NORMAL” value in data set [3] (Day 0, 1 hr post dose) was found to be 3; in data set [3] (Day 0, 8 hr post dose) it was 3. In addition, the “Droplets produced on nebulization” value in data set [4] is given as “droplets in the respirable range”.
For the molecule `C[C@H]1COc2c(N3CCN(C)CC3)c(F)cc3c(=O)c(C(=O)O)cn1c23` [Levofloxacin], the “Lung Levels: 8 hour (Range)” value in data set [1] is on record as 7590 ng/g - ng/g of lung tissue. In addition, the concentration at 1 h was 13800 ng/g in data set [1] (setting [14]); 2140 ng/g in data set [1] (setting [15]); 1610 to 2270 ng/g in data set [1] (setting [6]); 556 ng/mL in data set [1] (setting [16]); 534 to 815 ng/mL in data set [1] (setting [8]). The concentration at 8 h is 7560 ng/g in data set [1] (lung, Lung Concentration (μg/g) of Tissue, mice, IT, 8 hr, individual animals); 1200 ng/g in data set [1] (lung, Lung Concentration, mice, IT, 8 hr, individual animals); 1200 ng/g in data set [1] (setting [7]); 53 ng/mL in data set [1] (setting [17]); 53 ng/mL in data set [1] (setting [9]). The “Lung Concentration” value in data set [1] (setting [10]) is 2270 ng/g and 1610 ng/g; in data set [1] (setting [12]), “BQL”. The “Lung Concentration (μg/g) of Tissue” value in data set [1] (setting [10]) is 16.9 µg/g and 10.4 µg/g. Moreover, the “Plasma Concentration” value in data set [1] (setting [11]) is 815 ng/mL and 534 ng/mL; in data set [1] (setting [13]), “BQL”. The “Plasma levels 8 hour post dose (range)” value in data set [1] (setting [18]) turned out to be 53.0 ng/mL; in data set [1] (mice, endotracheal MicroSprayer, Subgroup B, 3 animals, listed as LEVOFLOXACIN), 53 ng/mL -. In data set [1] (mice), the “Lung levels compared to plasma levels” value is “increased”. In addition, the “Plasma and lung levels 8 hours post dose compared to 1 hour post dose” value in data set [1] (mice) was “decreased”. For the same molecule, the “ANIMALS ALIVE” value was 6 in data set [3] (Day 0, 1 hr post dose) and 3 in data set [3] (Day 0, 8 hr post dose). Further, the “ANIMALS NORMAL” value in data set [3] (Day 0, 1 hr post dose) is 3; in data set [3] (Day 0, 8 hr post dose), 3.
Take `Cc1ncc([N+](=O)[O-])n1CCO` [Metronidazole]: the “Lung Levels: 8 hour (Range)” value in data set [1] is on record as “Not detected”. Moreover, the concentration at 1 h was 11700 ng/g in data set [1] (setting [14]); 1640 ng/g in data set [1] (setting [15]); 1070 to 1640 ng/g in data set [1] (setting [6]); 2290 ng/mL in data set [1] (setting [16]); 1670 to 2290 ng/mL in data set [1] (setting [8]). Further, the concentration at 8 h in data set [1] (setting [17]) and in data set [1] (setting [9]) was 42.3 ng/mL throughout. In addition, the “Lung Concentration” value was 1070 ng/g and 1270 ng/g in data set [1] (setting [10]); “BQL” in data set [1] (setting [12]). Also, the “Lung Concentration (μg/g) of Tissue” value in data set [1] (setting [10]) was 6.50 µg/g and 8.27 µg/g. The “Plasma Concentration” value in data set [1] (setting [11]) was 1670 ng/mL and 1880 ng/mL; in data set [1] (setting [13]), “BQL”. Moreover, the “Lung levels 8 hour post dose (range)” value in data set [1] (mice, endotracheal MicroSprayer, Subgroup B) was “not detectable”. Moreover, the “Plasma levels 8 hour post dose (range)” value in data set [1] (setting [18]) was 42.3 ng/mL -. In data set [1] (mice), the “Lung levels compared to plasma levels” value is “increased”. Also, the “Plasma and lung levels 8 hours post dose compared to 1 hour post dose” value in data set [1] (mice) is “decreased”. Besides, the “Reported MIC” value in data set [2] is 250 μg/mL in (250,000 ng/mL). The “ANIMALS ALIVE” value in data set [3] (Day 0, 1 hr post dose) worked out at 6; in data set [3] (Day 0, 8 hr post dose) it was 3. Further, the “ANIMALS NORMAL” value was 3 in data set [3] (Day 0, 1 hr post dose) and 3 in data set [3] (Day 0, 8 hr post dose). Besides, in data set [4], the “Droplets produced on nebulization” value was “droplets in the respirable range”.

B1: Actimmune: Actimmune® (IFN-γ; Interferon gamma-1b), 100 μg/0.5 mL vial diluted 1:1400 (protein, UniProt P01579 24-161, looked up)
Interferon gamma: QDPYVKEAENLKKYFNAGHSDVADNGTLFLGILKNWKEESDRKIMQSQIVSFYFKLFKNFKDDQSIQKSVETIKEDMNVKFFNSNKKKRDDFEKLTNYSVTDLNVQRKAIHELIQVMAELSPAAKTGKRKRSQMLFRG
B1: in data set [5] (1 hr post dose), the “IFN-g Level in mouse plasma” value is “not detectable and below detectable levels (BDL) and BDL^a and BDL”; the “IFN-g Level in lung homogenate” value was 1732.7 pg/mL and 1248.4 pg/mL and 1109.4 pg/mL; the “ng of IFN-g per gm of tissue” value is 116.8 ng per gm of tissue and 87.9 ng per gm of tissue and 75.4 ng per gm of tissue; the “ng of IFN-g per gm of tissue, Mean” value is recorded as 93.3 ng per gm of tissue. Further, in data set [5] (1 hr post dose, listed as INTERFERON-gamma), the “IFN-g Level in mouse plasma” value is “Not Detectable”. In data set [5] (8 hr post dose), the “IFN-g Level in mouse plasma” value is “not detectable and below detectable levels (BDL) and BDL”; the “IFN-g Level in lung homogenate” value is 1006.2 pg/mL and 1578.0 pg/mL and 1307.7 pg/mL; the “ng of IFN-g per gm of tissue” value is 58.3 ng per gm of tissue and 72.2 ng per gm of tissue and 102.6 ng per gm of tissue; the “ng of IFN-g per gm of tissue, Mean” value is recorded as 77.7 ng per gm of tissue. In addition, in data set [5] (8 hr post dose, listed as INTERFERON-gamma), the “IFN-g Level in mouse plasma” value is listed as “Not Detectable”. In addition, in data set [5] (mice, endotracheal delivery), the “Plasma and lung levels 8 hours post dose compared to 1 hour post dose” value is “decreased”. In addition, in data set [3] (Day 0, 1 hr post dose), the “ANIMALS ALIVE” value is 6 and the “ANIMALS NORMAL” value is recorded as 3. Further, in data set [3] (Day 0, 8 hr post dose), the “ANIMALS ALIVE” value stood at 3 and the “ANIMALS NORMAL” value stood at 3.
